What was measured:
5-HT2A receptor = molecular target: T1, 5-HT2A receptor (Homo sapiens, UniProt P28223); test: FLIPR Ca2+ flux functional assay, 5-HT2A; assay type: cell-based; conditions: agonist activity, Ca2+ flux, HEK293 cells; for EC50: read-out: 5-HT2A EC50
T1 construct: host or cells: HEK293
Description: Activity at 5-HT2A, 5-HT2B and 5-HT2C receptors was determined using a FLIPR Ca^2+ flux assay at WuXi AppTec Co. Ltd. (Hong Kong) Discovery Biology Unit according to their standard protocols. Briefly, stably transfected cells expressing the receptor of interest (HEK293 for 5-HT2A and 5-HT2C; CHO-K1 for 5-HT2B) were grown and plated in a 384 well plate and incubated at 37° C. and 5% CO2 overnight. A 250 mM stock solution of probenecid in FLIPR calcium assay buffer (10 mL) was freshly prepared and combined with a fluorescent dye (Fluo-4 Direct) to give a final assay concentration of 2.5 mM. Reference compounds were 4-fold serially diluted and the screening compounds were 3-fold serially diluted in 100% DMSO for 10 points using Agilent Bravo, and 750 nL was added to a 384 well compound plate using Echo along with 30 μL assay buffer. The fluorescent dye was then added to the assay plate along with assay buffer to a final volume of […]. The cell plate was incubated for 50 min at 37° C. and 5% CO2 and placed into the FLIPR Tetra along with the compound plate. 10 μL of references and compounds were then transferred from the compound plate into the cell plate and the fluorescent signal was read.

5-HT2B receptor = molecular target: T2, 5-HT2B receptor (Homo sapiens, UniProt P41595); test: cell-based; conditions: agonist activity, Ca2+ flux, CHO-K1 cells; for EC50: read-out: 5-HT2B EC50
T2 construct: host or cells: CHO-K1
T2 sequence (P41595 whole entry): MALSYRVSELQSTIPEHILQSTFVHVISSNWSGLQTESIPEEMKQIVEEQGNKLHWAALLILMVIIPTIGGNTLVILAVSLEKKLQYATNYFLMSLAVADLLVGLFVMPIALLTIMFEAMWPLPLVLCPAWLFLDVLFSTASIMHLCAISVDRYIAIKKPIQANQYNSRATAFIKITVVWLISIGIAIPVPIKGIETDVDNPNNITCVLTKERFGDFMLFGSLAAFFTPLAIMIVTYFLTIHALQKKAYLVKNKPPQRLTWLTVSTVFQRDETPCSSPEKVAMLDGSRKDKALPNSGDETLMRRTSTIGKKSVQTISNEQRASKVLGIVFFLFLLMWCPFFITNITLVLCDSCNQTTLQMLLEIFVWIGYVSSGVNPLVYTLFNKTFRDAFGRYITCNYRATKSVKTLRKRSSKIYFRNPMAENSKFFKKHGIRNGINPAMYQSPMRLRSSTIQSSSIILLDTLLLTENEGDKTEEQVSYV

5-HT2C receptor = molecular target: T3, 5-HT2C receptor (Homo sapiens, UniProt P28335); test: cell-based; conditions: agonist activity, Ca2+ flux, HEK293 cells; for EC50: read-out: 5-HT2C EC50
T3 construct: host or cells: HEK293
T3 sequence (P28335 33-458): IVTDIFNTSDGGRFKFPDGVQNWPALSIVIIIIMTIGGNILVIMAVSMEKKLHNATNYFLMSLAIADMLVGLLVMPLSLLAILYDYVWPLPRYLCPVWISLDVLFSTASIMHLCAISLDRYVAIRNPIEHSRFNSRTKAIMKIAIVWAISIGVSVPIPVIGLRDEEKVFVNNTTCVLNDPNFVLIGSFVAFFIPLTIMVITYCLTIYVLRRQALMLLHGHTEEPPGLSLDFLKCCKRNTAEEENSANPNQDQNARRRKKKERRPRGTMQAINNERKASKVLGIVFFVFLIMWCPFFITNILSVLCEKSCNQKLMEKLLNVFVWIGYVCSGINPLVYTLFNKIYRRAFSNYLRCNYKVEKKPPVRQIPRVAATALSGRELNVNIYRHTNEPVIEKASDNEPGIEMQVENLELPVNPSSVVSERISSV

T1 sequence (P28223 whole entry): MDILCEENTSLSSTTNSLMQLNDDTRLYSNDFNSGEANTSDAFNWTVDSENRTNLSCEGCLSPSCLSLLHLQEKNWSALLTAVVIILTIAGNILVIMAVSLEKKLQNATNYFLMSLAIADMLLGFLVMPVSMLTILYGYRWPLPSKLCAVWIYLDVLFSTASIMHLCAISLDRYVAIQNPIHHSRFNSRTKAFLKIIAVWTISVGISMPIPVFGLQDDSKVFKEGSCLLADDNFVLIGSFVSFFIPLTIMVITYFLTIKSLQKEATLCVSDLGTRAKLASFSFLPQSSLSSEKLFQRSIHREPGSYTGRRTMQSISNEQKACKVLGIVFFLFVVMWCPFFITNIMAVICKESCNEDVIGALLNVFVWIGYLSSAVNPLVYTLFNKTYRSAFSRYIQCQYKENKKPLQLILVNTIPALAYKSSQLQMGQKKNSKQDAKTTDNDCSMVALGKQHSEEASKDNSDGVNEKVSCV

Structure (SMILES)	Emax (5-HT2A receptor) [%]	EC50 (5-HT2A receptor) [nM]	Emax (5-HT2B receptor) [%]	EC50 (5-HT2B receptor) [nM]	Emax (5-HT2C receptor) [%]	EC50 (5-HT2C receptor) [nM]
COc1ccc(C)c2[nH]cc(CCN(C)C(C)C)c12 [Example P-81, N-(2-(4-methoxy-7-methyl-1H-indol-3-yl)ethyl)-N-methylpropan-2-amine]	41.4	126	0.59	> 10000	38.8	764
CCN(CC)CCc1c[nH]c2c(C)ccc(OC)c12 [Example P-82, N,N-diethyl-2-(4-methoxy-7-methyl-1H-indol-3-yl)ethan-1-amine]	42.4	283	0.89	> 10000	76.7	417
COc1ccc(C)c2[nH]cc(CCN(C(C)C)C(C)C)c12 [Example P-83, N-isopropyl-N-(2-(4-methoxy-7-methyl-1H-indol-3-yl)ethyl)propan-2-amine]	79.2	619	30	> 10000	66.7	1620
CCN(C)CCc1c[nH]c2c(C)ccc(O)c12 [Example P-85, 3-(2-(ethyl(methyl)amino)ethyl)-7-methyl-1H-indol-4-ol]	52		0.13		26.9	
CCCN(C)CCc1c[nH]c2c(C)ccc(O)c12 [Example P-86, 7-methyl-3-(2-(methyl(propyl)amino)ethyl)-1H-indol-4-ol]	66.9	110	-0.14	≥ 10000	10	> 10000
Cc1ccc(O)c2c(CCN(C)C(C)C)c[nH]c12 [Example P-87, 3-(2-(isopropyl(methyl)amino)ethyl)-7-methyl-1H-indol-4-ol]	62.4	113	-0.38	≥ 10000	4.33	> 10000
CCN(CC)CCc1c[nH]c2c(C)ccc(O)c12 [Example P-88, 3-(2-(diethylamino)ethyl)-7-methyl-1H-indol-4-ol]	61.1	189	-0.07	≥ 10000	25.4	1300
CCCN(CCC)CCc1c[nH]c2c(C)ccc(O)c12 [Example P-89, 3-(2-(dipropylamino)ethyl)-7-methyl-1H-indol-4-ol]	118	48.6	6.63	≥ 10000	54.7	889
Cc1ccc(O)c2c(CCN(C(C)C)C(C)C)c[nH]c12 [Example P-90, 3-(2-(diisopropylamino)ethyl)-7-methyl-1H-indol-4-ol]	95.1	817	15.7	≥ 10000	50.2	9970
COc1c(F)ccc2[nH]cc(CCN(C)C)c12 [Example P-91, 2-(5-fluoro-4-methoxy-1H-indol-3-yl)-N,N-dimethylethan-1-amine]	74.9	2.33	4.57	> 10000	109	1.24
CCN(C)CCc1c[nH]c2ccc(F)c(OC)c12 [Example P-92, N-ethyl-2-(5-fluoro-4-methoxy-1H-indol-3-yl)-N-methylethan-1-amine]	78	7.33	25.1	> 10000	75.3	17.9
COc1c(F)ccc2[nH]cc(CCN(C)C(C)C)c12 [Example P-93, N-(2-(5-fluoro-4-methoxy-1H-indol-3-yl)ethyl)-N-methylpropan-2-amine]	95.3	7.25	51.5	24.8	85.1	45.2
CCN(CC)CCc1c[nH]c2ccc(F)c(OC)c12 [Example P-94, N,N-diethyl-2-(5-fluoro-4-methoxy-1H-indol-3-yl)ethan-1-amine]	98.1	11.2	47.4	94.2	58	131
COc1c(F)ccc2[nH]cc(CCN(C(C)C)C(C)C)c12 [Example P-95, N-(2-(5-fluoro-4-methoxy-1H-indol-3-yl)ethyl)-N-isopropylpropan-2-amine]	93.2	20	96.3	21.6	83	260
CCN(C)CCc1c[nH]c2cc(F)cc(OC)c12 [Example P-96, N-ethyl-2-(6-fluoro-4-methoxy-1H-indol-3-yl)-N-methylethan-1-amine]	73.6	8	19.6	> 10000	79.6	60.2
COc1cc(F)cc2[nH]cc(CCN(C)C(C)C)c12 [Example P-97, N-(2-(6-fluoro-4-methoxy-1H-indol-3-yl)ethyl)-N-methylpropan-2-amine]	65.4	6.76	14.2	> 10000	59.8	336
CCN(CC)CCc1c[nH]c2cc(F)cc(OC)c12 [Example P-98, N,N-diethyl-2-(6-fluoro-4-methoxy-1H-indol-3-yl)ethan-1-amine]	64.3	16	63.6	5430	71.8	311
CCN(CCc1c[nH]c2cc(F)cc(OC)c12)C(C)C [Example P-99, N-ethyl-N-(2-(6-fluoro-4-methoxy-1H-indol-3-yl)ethyl)propan-2-amine]	81.4	30.7	116	913	79.3	755
COc1cc(F)cc2[nH]cc(CCN(C(C)C)C(C)C)c12 [Example P-100, N-(2-(6-fluoro-4-methoxy-1H-indol-3-yl)ethyl)-N-isopropylpropan-2-amine]	91.3	51.4	128	436	76.9	864
COc1ccc(F)c2[nH]cc(CCN(C)C)c12 [Example P-101, 2-(7-fluoro-4-methoxy-1H-indol-3-yl)-N,N-dimethylethan-1-amine]	71.6	3.84	4.06	> 10000	53.1	8.28
CCN(C)CCc1c[nH]c2c(F)ccc(OC)c12 [Example P-102, N-ethyl-2-(7-fluoro-4-methoxy-1H-indol-3-yl)-N-methylethan-1-amine]	60.8	15	3.44	> 10000	47.5	155
COc1ccc(F)c2[nH]cc(CCN(C)C(C)C)c12 [Example P-103, N-(2-(7-fluoro-4-methoxy-1H-indol-3-yl)ethyl)-N-methylpropan-2-amine]	61.8	34.6	3.67	> 10000	7.02	> 10000
CCN(CC)CCc1c[nH]c2c(F)ccc(OC)c12 [Example P-104, N,N-diethyl-2-(7-fluoro-4-methoxy-1H-indol-3-yl)ethan-1-amine]	77.5	28.3	13.1	> 10000	52.5	8180
COc1ccc(F)c2[nH]cc(CCN(C(C)C)C(C)C)c12 [Example P-105, N-(2-(7-fluoro-4-methoxy-1H-indol-3-yl)ethyl)-N-isopropylpropan-2-amine]	91.2	147	127	134	92.6	1200
CCN(C)CCc1c[nH]c2c(F)cc(OC)cc12 [Example P-115, N-ethyl-2-(7-fluoro-5-methoxy-1H-indol-3-yl)-N-methylethan-1-amine]	85.6		16.4		81.7	
COc1cc(F)c2[nH]cc(CCN(C)C(C)C)c2c1 [Example P-116, N-(2-(7-fluoro-5-methoxy-1H-indol-3-yl)ethyl)-N-methylpropan-2-amine]	60.2	15.7	23.1	136	60.5	720
CCN(CC)CCc1c[nH]c2c(F)cc(OC)cc12 [Example P-117, N,N-diethyl-2-(7-fluoro-5-methoxy-1H-indol-3-yl)ethan-1-amine]	95.8		41.2		81.5	

Reference: patent publication US20250101038A1, “COMPOUNDS” (priority 2021, published 2025)
